Test results as given in ChEMBL document CHEMBL4507274 (2021).

Experiments:
[1] = molecular target: Cyclin-dependent kinase 3 (Homo sapiens) (UniProt Q00526); test: CDK3/ cyclin E (h) Upstate kinase activity assay; conditions: Compound concentration 10.0 uM
[2] = molecular target: CDK6/cyclin D3 (Homo sapiens) (UniProt P30281+Q00534); test: CDK6/ cyclin D3 (h) Upstate kinase activity assay; format: protein-complex assay; conditions: Compound concentration 10.0 uM
[3] = molecular target: Receptor tyrosine-protein kinase erbB-4 (Homo sapiens) (UniProt Q15303); test: ErbB4 (h) Upstate kinase activity assay; conditions: Compound concentration 10.0 uM
Receptor tyrosine-protein kinase erbB-4 (Homo sapiens), sequence (Q15303 whole entry): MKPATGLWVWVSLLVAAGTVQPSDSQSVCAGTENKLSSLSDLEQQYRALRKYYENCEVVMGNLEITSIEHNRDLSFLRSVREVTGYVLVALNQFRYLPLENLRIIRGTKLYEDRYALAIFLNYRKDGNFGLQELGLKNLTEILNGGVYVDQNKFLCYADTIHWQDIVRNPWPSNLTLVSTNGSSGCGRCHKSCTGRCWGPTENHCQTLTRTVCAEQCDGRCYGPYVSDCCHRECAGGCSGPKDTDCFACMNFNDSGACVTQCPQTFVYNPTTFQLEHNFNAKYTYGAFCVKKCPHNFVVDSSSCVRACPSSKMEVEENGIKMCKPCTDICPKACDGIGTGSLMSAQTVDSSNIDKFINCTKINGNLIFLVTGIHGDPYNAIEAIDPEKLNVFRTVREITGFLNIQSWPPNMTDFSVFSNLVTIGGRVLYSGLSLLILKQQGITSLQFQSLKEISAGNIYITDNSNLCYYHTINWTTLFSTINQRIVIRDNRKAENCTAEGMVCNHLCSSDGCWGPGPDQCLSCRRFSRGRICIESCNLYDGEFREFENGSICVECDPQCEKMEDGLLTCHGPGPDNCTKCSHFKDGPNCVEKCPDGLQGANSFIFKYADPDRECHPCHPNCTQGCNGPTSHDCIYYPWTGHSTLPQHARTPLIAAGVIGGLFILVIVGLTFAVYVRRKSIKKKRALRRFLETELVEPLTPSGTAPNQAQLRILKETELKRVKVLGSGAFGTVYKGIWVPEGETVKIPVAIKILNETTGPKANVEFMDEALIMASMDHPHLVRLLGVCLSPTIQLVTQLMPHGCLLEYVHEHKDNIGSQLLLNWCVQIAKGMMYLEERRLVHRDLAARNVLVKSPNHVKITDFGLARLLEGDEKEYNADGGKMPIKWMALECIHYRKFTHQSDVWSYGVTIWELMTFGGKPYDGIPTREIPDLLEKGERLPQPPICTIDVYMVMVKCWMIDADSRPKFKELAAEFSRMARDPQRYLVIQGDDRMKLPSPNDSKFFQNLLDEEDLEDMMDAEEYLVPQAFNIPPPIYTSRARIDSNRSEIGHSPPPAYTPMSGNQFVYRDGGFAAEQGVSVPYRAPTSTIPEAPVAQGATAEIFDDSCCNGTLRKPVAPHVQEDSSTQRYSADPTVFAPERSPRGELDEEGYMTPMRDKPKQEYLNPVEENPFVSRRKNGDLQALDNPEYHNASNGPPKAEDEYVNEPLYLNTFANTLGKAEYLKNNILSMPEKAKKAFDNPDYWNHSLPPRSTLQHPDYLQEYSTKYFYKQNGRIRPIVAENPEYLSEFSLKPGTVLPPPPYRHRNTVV

[4] = molecular target: Tyrosine-protein kinase Lck (Homo sapiens) (UniProt P06239); test: Lck (h) Upstate kinase activity assay; conditions: Compound concentration 10.0 uM
Tyrosine-protein kinase Lck (Homo sapiens), sequence (P06239 2-509 limits assumed): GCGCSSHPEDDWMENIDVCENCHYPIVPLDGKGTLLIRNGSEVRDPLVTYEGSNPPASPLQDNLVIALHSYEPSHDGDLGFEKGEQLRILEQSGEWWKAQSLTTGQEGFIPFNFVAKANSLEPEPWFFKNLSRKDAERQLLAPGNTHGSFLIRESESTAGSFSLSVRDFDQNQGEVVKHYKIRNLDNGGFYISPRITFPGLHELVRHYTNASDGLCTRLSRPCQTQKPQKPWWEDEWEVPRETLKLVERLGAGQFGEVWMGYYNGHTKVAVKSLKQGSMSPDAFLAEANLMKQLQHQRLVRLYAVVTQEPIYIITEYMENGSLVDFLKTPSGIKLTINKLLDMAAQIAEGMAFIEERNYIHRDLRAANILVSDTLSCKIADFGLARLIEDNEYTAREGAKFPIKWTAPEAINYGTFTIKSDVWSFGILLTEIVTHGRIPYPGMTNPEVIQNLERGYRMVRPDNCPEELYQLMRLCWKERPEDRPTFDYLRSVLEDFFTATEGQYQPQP

[5] = molecular target: Mitogen-activated protein kinase 1 (Homo sapiens) (UniProt P28482); test: MAPK1 (h) Upstate kinase activity assay; conditions: Compound concentration 10.0 uM
Mitogen-activated protein kinase 1 (Homo sapiens), sequence (P28482 whole entry): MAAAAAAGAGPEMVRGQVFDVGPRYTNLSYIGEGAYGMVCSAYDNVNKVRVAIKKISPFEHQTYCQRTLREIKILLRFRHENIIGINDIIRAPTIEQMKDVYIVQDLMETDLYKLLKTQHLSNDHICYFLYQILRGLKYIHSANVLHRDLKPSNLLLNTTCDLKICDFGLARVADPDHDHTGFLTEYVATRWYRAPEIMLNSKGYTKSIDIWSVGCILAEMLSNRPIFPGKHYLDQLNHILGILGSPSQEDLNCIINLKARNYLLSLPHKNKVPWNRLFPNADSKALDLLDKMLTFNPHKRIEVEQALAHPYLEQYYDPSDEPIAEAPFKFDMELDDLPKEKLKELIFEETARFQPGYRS

[6] = molecular target: Mitogen-activated protein kinase 1 (Mus musculus) (UniProt P63085); test: MAPK2 (m) Upstate kinase activity assay; conditions: Compound concentration 10.0 uM
Mitogen-activated protein kinase 1 (Mus musculus), sequence (P63085 whole entry): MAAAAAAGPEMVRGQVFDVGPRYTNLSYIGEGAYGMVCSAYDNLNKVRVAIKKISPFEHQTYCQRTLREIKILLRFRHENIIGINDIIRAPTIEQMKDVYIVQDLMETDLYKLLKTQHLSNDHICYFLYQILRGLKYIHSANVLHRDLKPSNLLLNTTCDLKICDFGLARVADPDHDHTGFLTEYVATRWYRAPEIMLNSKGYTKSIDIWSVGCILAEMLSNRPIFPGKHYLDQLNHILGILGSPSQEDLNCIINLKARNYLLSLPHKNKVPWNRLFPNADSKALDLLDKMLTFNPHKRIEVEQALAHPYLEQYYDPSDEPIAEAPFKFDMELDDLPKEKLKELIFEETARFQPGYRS

[7] = molecular target: T1, Serine/threonine-protein kinase 3 (Homo sapiens) (UniProt Q13188); test: MST2 (h) Upstate kinase activity assay; conditions: Compound concentration 10.0 uM
T1 sequence (whole entry): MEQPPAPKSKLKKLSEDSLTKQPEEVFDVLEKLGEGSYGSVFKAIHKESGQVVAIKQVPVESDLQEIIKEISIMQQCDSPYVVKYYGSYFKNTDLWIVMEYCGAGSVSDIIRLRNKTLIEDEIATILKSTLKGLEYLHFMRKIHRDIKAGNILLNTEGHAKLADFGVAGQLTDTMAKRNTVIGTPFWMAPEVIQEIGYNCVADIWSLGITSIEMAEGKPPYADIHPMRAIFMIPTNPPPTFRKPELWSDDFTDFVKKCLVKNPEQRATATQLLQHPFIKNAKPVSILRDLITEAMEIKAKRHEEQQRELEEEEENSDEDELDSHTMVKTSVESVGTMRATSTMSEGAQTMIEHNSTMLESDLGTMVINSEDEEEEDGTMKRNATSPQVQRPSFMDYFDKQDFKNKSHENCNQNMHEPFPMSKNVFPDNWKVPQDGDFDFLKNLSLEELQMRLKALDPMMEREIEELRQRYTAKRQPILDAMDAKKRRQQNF

[8] = molecular target: T2, Serine/threonine-protein kinase Nek2 (Homo sapiens) (UniProt P51955); test: NEK2 (h) Upstate kinase activity assay; conditions: Compound concentration 10.0 uM
T2 sequence (whole entry): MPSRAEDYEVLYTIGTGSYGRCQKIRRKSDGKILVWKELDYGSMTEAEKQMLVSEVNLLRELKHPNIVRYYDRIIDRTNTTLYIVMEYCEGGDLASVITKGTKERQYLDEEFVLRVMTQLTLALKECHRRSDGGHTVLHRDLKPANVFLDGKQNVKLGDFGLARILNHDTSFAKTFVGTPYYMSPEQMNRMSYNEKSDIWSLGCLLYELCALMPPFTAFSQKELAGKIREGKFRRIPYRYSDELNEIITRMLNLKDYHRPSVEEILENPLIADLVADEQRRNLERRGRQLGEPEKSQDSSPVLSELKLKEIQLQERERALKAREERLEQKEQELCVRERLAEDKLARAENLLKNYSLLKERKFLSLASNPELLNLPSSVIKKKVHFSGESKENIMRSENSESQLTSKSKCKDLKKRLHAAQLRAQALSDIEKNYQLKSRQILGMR

[9] = molecular target: RAC-gamma serine/threonine-protein kinase (Homo sapiens) (UniProt Q9Y243); test: PKBγgamma(h) Upstate kinase activity assay; conditions: Compound concentration 10.0 uM
RAC-gamma serine/threonine-protein kinase (Homo sapiens), sequence (Q9Y243 whole entry): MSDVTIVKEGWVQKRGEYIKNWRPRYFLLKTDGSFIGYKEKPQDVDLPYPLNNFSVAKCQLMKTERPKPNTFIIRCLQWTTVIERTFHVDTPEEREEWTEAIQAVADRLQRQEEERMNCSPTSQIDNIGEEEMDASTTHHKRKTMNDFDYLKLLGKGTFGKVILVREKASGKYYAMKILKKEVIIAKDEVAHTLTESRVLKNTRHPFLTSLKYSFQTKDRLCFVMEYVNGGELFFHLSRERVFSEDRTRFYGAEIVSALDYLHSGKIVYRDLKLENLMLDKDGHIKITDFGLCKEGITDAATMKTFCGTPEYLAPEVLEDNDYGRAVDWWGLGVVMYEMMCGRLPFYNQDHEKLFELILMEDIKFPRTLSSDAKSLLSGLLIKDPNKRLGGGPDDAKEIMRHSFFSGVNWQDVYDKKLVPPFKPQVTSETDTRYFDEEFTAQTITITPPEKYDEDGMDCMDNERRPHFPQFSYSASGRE

[10] = molecular target: T3, Serine/threonine-protein kinase D1 (Homo sapiens) (UniProt Q15139); test: PKCmu (h) Upstate kinase activity assay; conditions: Compound concentration 10.0 uM
T3 sequence (whole entry): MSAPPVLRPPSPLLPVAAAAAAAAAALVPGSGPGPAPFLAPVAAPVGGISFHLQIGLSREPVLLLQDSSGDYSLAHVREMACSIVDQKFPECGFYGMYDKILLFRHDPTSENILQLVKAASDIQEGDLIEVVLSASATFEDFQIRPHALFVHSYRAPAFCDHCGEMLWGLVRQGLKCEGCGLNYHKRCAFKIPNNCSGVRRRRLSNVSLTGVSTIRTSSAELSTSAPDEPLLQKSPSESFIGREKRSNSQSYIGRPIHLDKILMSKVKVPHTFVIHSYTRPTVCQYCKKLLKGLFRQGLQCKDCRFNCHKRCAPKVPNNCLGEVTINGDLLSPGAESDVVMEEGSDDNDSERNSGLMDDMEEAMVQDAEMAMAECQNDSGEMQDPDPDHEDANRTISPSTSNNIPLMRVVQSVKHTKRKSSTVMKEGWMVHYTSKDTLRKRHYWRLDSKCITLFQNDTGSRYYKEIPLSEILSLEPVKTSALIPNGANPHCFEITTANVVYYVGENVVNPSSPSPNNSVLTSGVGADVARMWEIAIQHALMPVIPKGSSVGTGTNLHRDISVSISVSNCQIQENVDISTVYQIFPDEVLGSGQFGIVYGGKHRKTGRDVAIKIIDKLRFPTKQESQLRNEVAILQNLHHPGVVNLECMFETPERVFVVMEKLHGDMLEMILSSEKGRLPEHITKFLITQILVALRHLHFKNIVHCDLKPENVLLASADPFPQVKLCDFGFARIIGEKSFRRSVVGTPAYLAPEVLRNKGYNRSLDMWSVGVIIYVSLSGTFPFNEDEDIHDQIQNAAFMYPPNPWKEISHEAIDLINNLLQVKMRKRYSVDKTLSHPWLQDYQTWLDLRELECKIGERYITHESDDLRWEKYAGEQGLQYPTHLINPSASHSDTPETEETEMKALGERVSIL

[11] = molecular target: Proto-oncogene tyrosine-protein kinase receptor Ret (Homo sapiens) (UniProt P07949); test: Ret (h) Upstate kinase activity assay; conditions: Compound concentration 10.0 uM
Proto-oncogene tyrosine-protein kinase receptor Ret (Homo sapiens), sequence (P07949 whole entry): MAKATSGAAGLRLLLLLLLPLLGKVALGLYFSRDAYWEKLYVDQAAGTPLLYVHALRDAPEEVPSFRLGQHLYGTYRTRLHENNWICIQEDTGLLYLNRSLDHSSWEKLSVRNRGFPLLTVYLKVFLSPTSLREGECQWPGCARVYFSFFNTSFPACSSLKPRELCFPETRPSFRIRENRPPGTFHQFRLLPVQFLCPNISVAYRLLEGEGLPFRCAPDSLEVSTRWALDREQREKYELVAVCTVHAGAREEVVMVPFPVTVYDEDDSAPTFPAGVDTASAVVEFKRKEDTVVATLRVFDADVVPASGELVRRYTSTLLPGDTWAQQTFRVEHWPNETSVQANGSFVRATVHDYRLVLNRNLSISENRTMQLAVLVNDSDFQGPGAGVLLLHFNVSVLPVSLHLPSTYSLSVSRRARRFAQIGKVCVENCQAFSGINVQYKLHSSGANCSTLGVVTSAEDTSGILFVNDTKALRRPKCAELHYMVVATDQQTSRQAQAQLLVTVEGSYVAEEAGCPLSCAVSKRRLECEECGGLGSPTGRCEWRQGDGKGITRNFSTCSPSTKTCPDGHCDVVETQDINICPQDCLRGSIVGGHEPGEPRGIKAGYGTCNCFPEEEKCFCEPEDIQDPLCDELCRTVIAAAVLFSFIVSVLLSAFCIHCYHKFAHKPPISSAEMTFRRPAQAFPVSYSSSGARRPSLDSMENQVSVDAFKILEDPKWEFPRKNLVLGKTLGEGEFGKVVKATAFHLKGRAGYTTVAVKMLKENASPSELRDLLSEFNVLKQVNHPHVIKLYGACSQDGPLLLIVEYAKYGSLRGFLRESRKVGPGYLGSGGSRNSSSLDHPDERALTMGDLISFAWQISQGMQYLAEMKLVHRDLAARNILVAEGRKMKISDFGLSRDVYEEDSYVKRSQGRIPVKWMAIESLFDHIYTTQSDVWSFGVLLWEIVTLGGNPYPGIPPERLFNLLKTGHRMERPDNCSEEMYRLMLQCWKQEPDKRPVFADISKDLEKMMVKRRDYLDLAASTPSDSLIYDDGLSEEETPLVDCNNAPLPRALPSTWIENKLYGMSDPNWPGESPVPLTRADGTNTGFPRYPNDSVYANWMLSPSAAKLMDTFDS

[12] = molecular target: Tyrosine-protein kinase SYK (Homo sapiens) (UniProt P43405); test: Syk (h) Upstate kinase activity assay; conditions: Compound concentration 10.0 uM
HepG2 = test: Liver HepG2 cell line MDS Pharma Services Proliferation Assay; format: functional, cell-based, Homo sapiens
[13] = tested on: Epidermal growth factor receptor (Homo sapiens), P00533 [UNDEFINED MUTATION]; conditions: Compound concentration 100.0 nM
[14] = molecular target: Alpha-1D adrenergic receptor (Homo sapiens) (UniProt P25100); conditions: Compound concentration 10.0 uM
Alpha-1D adrenergic receptor (Homo sapiens), sequence (P25100 whole entry): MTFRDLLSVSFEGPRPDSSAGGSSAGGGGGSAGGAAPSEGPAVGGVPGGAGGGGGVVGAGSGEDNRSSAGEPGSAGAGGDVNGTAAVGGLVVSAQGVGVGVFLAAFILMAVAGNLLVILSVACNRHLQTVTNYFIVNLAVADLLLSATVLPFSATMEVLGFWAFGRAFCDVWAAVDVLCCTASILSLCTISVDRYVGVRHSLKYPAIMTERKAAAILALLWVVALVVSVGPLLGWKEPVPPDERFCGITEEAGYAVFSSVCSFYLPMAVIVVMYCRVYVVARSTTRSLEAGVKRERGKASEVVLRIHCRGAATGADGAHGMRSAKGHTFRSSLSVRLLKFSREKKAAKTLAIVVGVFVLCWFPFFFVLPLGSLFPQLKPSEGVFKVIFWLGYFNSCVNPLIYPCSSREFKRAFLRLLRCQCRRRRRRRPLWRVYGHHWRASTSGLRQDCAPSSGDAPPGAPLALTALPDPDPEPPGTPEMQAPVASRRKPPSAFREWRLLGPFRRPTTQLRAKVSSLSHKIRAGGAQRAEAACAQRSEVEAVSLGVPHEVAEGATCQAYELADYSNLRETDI

Cyclin-dependent kinase 3 (Homo sapiens), sequence (Q00526 whole entry, looked up): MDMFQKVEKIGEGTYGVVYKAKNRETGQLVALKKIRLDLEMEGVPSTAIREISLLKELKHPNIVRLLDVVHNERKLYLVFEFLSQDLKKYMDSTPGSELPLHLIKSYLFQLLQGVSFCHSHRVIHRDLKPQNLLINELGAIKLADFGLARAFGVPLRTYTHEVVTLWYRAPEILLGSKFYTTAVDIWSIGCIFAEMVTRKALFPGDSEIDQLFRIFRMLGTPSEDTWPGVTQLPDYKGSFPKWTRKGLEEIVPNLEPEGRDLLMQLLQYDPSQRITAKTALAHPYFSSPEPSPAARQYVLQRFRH

Cc1c[nH]c2nccc(Oc3c(F)cc(Nc4cc(Cl)nc(N)n4)cc3F)c12 [BAY-549]
inhibition [1]: 33% | inhibition [2]: 9% | inhibition [3]: 5% | inhibition [4]: 50% | inhibition [5]: 1% | inhibition [6]: 21% | inhibition [7]: 59% | inhibition [8]: 19% | inhibition [9]: 87% | inhibition [10]: 60% | inhibition [11]: 52% | inhibition [12]: 20% | IC50 (HepG2; Homo sapiens, HepG2): 3.1 µM | TGI (HepG2; Homo sapiens, HepG2): 54 µM | CC50 (HepG2; Homo sapiens, HepG2, read-out: LC50 (the source's name)): > 100 µM | Mean % growth (n = 2) for 1.0 µM probe concentration (HepG2; ± SEM 2 % growth): 62% | Mean % growth (n = 2) for 0.01 µM probe concentration (HepG2; ± SEM 4 % growth): 101% | Mean % growth (n = 2) for 10.0 µM probe concentration (HepG2; ± SEM 4 % growth): 18% | Mean % growth (n = 2) for 0.1 µM probe concentration (HepG2; ± SEM 6 % growth): 95% | Mean % growth (n = 2) for 100.0 µM probe concentration (HepG2; ± SEM 6 % growth): -3%

Cn1cc(Cl)c2c(Oc3c(F)cc(Nc4cc(Cl)nc(N)n4)cc3F)ccnc21 [BAY-4900]
residual activity [13]: 73% | inhibition [14]: -6.73%
